Where two headings read alike, the source gives them in different places.
What was measured:
[1] = type: physicochemical; design: key to Fibril / Fibril Formation / TEM 2cat / Fibril: 1 = fibrils present; 0 non-fibrillar structures; details: for Fibril / Fibril Formation: 1 mg/mL, uranyl acetate stain, qualitative
[2] = Zeta-potential measurement; type: physicochemical
Outline: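 Readout: zeta potential (mV) derived by Smoluchowski from measured electrophoretic mobility. Preformed aggregates (1 mg/mL peptide, PBS pH 7.4, RT for 1 d) were diluted into dilute KCl electrolyte (1 mM) shortly before analysis.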

[3] = β-sheet content by ATR-FT-IR; type: physicochemical; details: for b -sheet / %: Fig. S7 panel A, β-sheet content by ATR-FT-IR; for beta sheet: peptides with TEM 2cat 0
Outline: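 Conversion rate: fluorescamine fluorescence (ex 365/em 470 nm, 20 min RT) of 3 kDa filtrate versus unfiltered PNF, CR = 100 − 100 × filtrate/original intensity, triplicates. β-sheet content came from ATR FT-IR of lyophilized 1 mg/mL PNF powder, 64 scans.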

[4] = Turbidity, derived count rate of scattered light; type: physicochemical; details: for Count Rate / kcps: derived count rate of scattered light at 633 nm, 173°, from zeta-potential measurement, 0.1 mg/mL in 1 mM KCl after 1 d at 1 mg/mL in PBS, turbidity / microscopic aggregation, mean of triplicate; for Zeta Count Rate: peptides with TEM 2cat 0
Outline: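 Samples: 1 mg/mL in PBS pH 7.4 (from DMSO), 1 d at RT, then diluted in 1 mM KCl immediately before measurement. Triplicates, two independent runs averaged.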

[5] = Turbidity, derived count rate of scattered light; type: physicochemical; details: for Count Rate: derived count rate of scattered light (turbidity); for Log10 Count Rate: turbidity, derived count rate of scattered light, data of Figure 2D
[6] = Fig S10 panel D, fibril category by TEM
[7] = TEM, 1 = fibrils present, 0 = non-fibrillar
[8] = TEM, 1 = fibrils present, 0 = non-fibrillar structures
[9] = category: fibrils present or non-fibrillar
[10] = zeta potential of peptide assemblies
[11] = zeta-potential of peptide, source data of Figure 2C
[12] = zeta-potential of the peptide assemblies, mean, Figure 3A source data
[13] = Log10 of derived count rate of scattered light (turbidity)
[14] = log10 of derived count rate of scattered light (turbidity)
[15] = turbidity, Log10 of derived count rate of scattered light, Figure 3A source data
[16] = logarithm of count rate in kcps

Sequence: CKIKIQINM
- TEM 2cat [1, 6]: 1
- Fibril ([1]; Fig S10 panel E): 1
- Fibril / Fibril Formation ([1]; TEM): 1
- Fibril [1, 7]: 1
- Fibril [1, 8]: 1
- TEM 2cat [1, 9]: 1
- Zeta-Pot. [2, 10]: 16.83
- Zeta-Potential / mV [2, 11]: 14.3 mV
- Zeta-Potential / mV [2, 12]: 16.83 mV
- b -sheet / % [3]: 42.84%
- Log10 Count Rate [4, 13]: 3.626
- Count Rate / kcps [4]: 4228 kcps
- Log10 Count Rate [4, 14]: 3.626
- Log10 Count Rate [4, 15]: 3.626
- Count Rate [5]: 4228
- Log10 Count Rate [5]: 3.626

Sequence: RGDKIKIQINM
- TEM 2cat [1, 6]: 1
- Fibril ([1]; Fig S10 panel E): 1
- Fibril / Fibril Formation ([1]; TEM): 1
- Fibril [1, 7]: 1
- Fibril [1, 8]: 1
- TEM 2cat [1, 9]: 1
- Zeta-Pot. [2, 10]: 16.43
- Zeta-Potential / mV [2, 11]: 16.22 mV
- Zeta-Potential / mV [2, 12]: 16.43 mV
- b -sheet / % [3]: 45.52%
- Log10 Count Rate [4, 13]: 1.7574
- Count Rate / kcps [4]: 57 kcps
- Log10 Count Rate [4, 14]: 1.7574
- Log10 Count Rate [4, 15]: 1.7574
- Count Rate [5]: 57.2
- Log10 Count Rate [5]: 1.7574

Sequence: CKFKFQFW
- TEM 2cat [1, 6]: 1
- Fibril ([1]; Fig S10 panel E): 1
- Fibril / Fibril Formation ([1]; TEM): 1
- Fibril [1, 7]: 1
- Fibril [1, 8]: 1
- TEM 2cat [1, 9]: 1
- Zeta-Pot. [2]: 15.2
- Zeta-Potential / mV [2, 11]: 16.02 mV
- Zeta-Potential / mV [2, 12]: 15.2 mV
- b -sheet / % [3]: 42.53%
- Log10 Count Rate [4, 13]: 4.466
- Count Rate / kcps [4]: 29211 kcps
- Log10 Count Rate [4, 14]: 4.466
- Log10 Count Rate [4, 16]: 4.466
- Log10 Count Rate [4, 15]: 4.466
- Count Rate [5]: 29210.5
- Log10 Count Rate [5]: 4.466

Sequence: RGDKIKIQIC
- TEM 2cat [1, 6]: 1
- Fibril ([1]; Fig S10 panel E): 1
- Fibril / Fibril Formation ([1]; TEM): 1
- Fibril [1, 7]: 1
- Fibril [1, 8]: 1
- TEM 2cat [1, 9]: 1
- Zeta-Pot. [2, 10]: 16.5
- Zeta-Potential / mV [2, 11]: 17.27 mV
- Zeta-Potential / mV [2, 12]: 16.5 mV
- b -sheet / % [3]: 40.73%
- Log10 Count Rate [4, 13]: 3.876
- Count Rate / kcps [4]: 7509 kcps
- Log10 Count Rate [4, 14]: 3.876
- Log10 Count Rate [4, 15]: 3.876
- Count Rate [5]: 7509
- Log10 Count Rate [5]: 3.876

Sequence: KIKIQIMWNQ
- TEM 2cat [1, 6]: 1
- Fibril / Fibril Formation ([1]; TEM): 1
- Fibril [1, 7]: 1
- Fibril [1, 8]: 1
- TEM 2cat [1, 9]: 1
- Zeta-Pot. [2]: 2.96
- Zeta-Potential / mV [2, 11]: 4.42 mV
- Zeta-Potential / mV [2, 12]: 2.96 mV
- b -sheet / % [3]: 41.4%
- Log10 Count Rate [4, 13]: 3.2757
- Count Rate / kcps [4]: 1887 kcps
- Log10 Count Rate [4, 14]: 3.2757
- Log10 Count Rate [4, 15]: 3.2757
- Count Rate [5]: 1887
- Log10 Count Rate [5]: 3.2757

Sequence: KIKIKIKIWW
- TEM 2cat [1, 6]: 0
- Fibril ([1]; Fig S10 panel E): 0
- Fibril / Fibril Formation ([1]; TEM): 0
- Fibril [1, 7]: 0
- Fibril [1, 8]: 0
- TEM 2cat [1, 9]: 0
- Zeta-Pot. [2, 10]: 15.4
- Zeta-Potential / mV [2, 11]: 15.83 mV
- Zeta-Potential / mV [2, 12]: 15.4 mV
- b -sheet / % [3]: 48.82%
- beta sheet [3]: 49
- Log10 Count Rate [4, 13]: 3.975
- Count Rate / kcps [4]: 9436 kcps
- Log10 Count Rate [4, 14]: 3.975
- Zeta Count Rate [4]: 9436 kcp
- Log10 Count Rate [4, 15]: 3.975
- Count Rate [5]: 9436
- Log10 Count Rate [5]: 3.975

Sequence: HHHHKIKIQINMYYYY
- TEM 2cat [1, 6]: 1
- Fibril ([1]; Fig S10 panel E): 1
- Fibril / Fibril Formation ([1]; TEM): 1
- Fibril [1, 7]: 1
- Fibril [1, 8]: 1
- TEM 2cat [1, 9]: 1
- Zeta-Pot. [2, 10]: 7.807
- Zeta-Potential / mV [2, 11]: 7.147 mV
- Zeta-Potential / mV [2, 12]: 7.81 mV
- b -sheet / % [3]: 46.73%
- Log10 Count Rate [4, 13]: 3.753
- Count Rate / kcps [4]: 5659 kcps
- Log10 Count Rate [4, 14]: 3.753
- Log10 Count Rate [4, 16]: 3.753
- Log10 Count Rate [4, 15]: 3.753
- Count Rate [5]: 5659
- Log10 Count Rate [5]: 3.753

Sequence: KIKIQINMWWQ
- TEM 2cat [1, 6]: 0
- Fibril / Fibril Formation ([1]; TEM): 0
- Fibril [1, 7]: 0
- Fibril [1, 8]: 0
- TEM 2cat [1, 9]: 0
- Zeta-Pot. [2]: 11.8
- Zeta-Potential / mV [2, 11]: 13.17 mV
- Zeta-Potential / mV [2, 12]: 11.8 mV
- b -sheet / % [3]: 50.48%
- beta sheet [3]: 50
- Log10 Count Rate [4, 13]: 3.59
- Count Rate / kcps [4]: 3893 kcps
- Log10 Count Rate [4, 14]: 3.59
- Zeta Count Rate [4]: 3893 kcp
- Log10 Count Rate [4, 15]: 3.59
- Count Rate [5]: 3893
- Log10 Count Rate [5]: 3.59

Sequence: KAKAKAQA
- TEM 2cat [1, 6]: 0
- TEM 2cat ([1]; FigS12 panel A, fibril category by TEM): 0
- Fibril ([1]; FigS12 panel B, TEM): 0
- Fibril / Fibril Formation ([1]; TEM): 0
- Fibril [1, 7]: 0
- Fibril [1, 8]: 0
- Zeta-Pot. [2, 10]: -9.01
- Zeta-Potential / mV [2, 11]: -5.297 mV
- Zeta-Potential / mV [2, 12]: -9.01 mV
- b -sheet / % [3]: 39.62%
- Log10 Count Rate [4, 13]: 1.886
- Count Rate / kcps [4]: 77 kcps
- Log10 Count Rate [4, 14]: 1.886
- Log10 Count Rate [4, 15]: 1.886
- Count Rate [5]: 76.93
- Log10 Count Rate [5]: 1.886

Sequence: CKIKIQIRGD
- TEM 2cat [1, 6]: 1
- Fibril ([1]; Fig S10 panel E): 1
- Fibril / Fibril Formation ([1]; TEM): 1
- Fibril [1, 7]: 1
- Fibril [1, 8]: 1
- TEM 2cat [1, 9]: 1
- Zeta-Pot. [2, 10]: 7.157
- Zeta-Potential / mV [2, 11]: 7.157 mV
- Zeta-Potential / mV [2, 12]: 7.16 mV
- b -sheet / % [3]: 58.14%
- Log10 Count Rate [4, 13]: 3.762
- Count Rate / kcps [4]: 5777 kcps
- Log10 Count Rate [4, 14]: 3.762
- Log10 Count Rate [4, 15]: 3.762
- Count Rate [5]: 5777
- Log10 Count Rate [5]: 3.762

Sequence: CEFEFQFNMWQ
- TEM 2cat [1, 6]: 1
- Fibril ([1]; Fig S10 panel E): 1
- Fibril / Fibril Formation ([1]; TEM): 1
- Fibril [1, 7]: 1
- Fibril [1, 8]: 1
- TEM 2cat [1, 9]: 1
- Zeta-Pot. [2, 10]: -34.23
- Zeta-Potential / mV [2, 11]: -24.5 mV
- Zeta-Potential / mV [2, 12]: -34.23 mV
- b -sheet / % [3]: 51.48%
- Log10 Count Rate [4, 13]: 2.27
- Count Rate / kcps [4]: 186 kcps
- Log10 Count Rate [4, 14]: 2.27
- Log10 Count Rate [4, 15]: 2.27
- Count Rate [5]: 186.3
- Log10 Count Rate [5]: 2.27

Source: publication PMC10447463, “Data-mining unveils structure–property–activity correlation of viral infectivity enhancing self-assembling peptides” (Nature Communications, 2023)
